In patent US20150352108A1, “AMINO-PYRIMIDINE COMPOUNDS AS INHIBITORS OF TBK1 AND/OR IKK EPSILON” (Alzheimer's Institute of America, priority 2009, published 2015):
Read-outs that look alike come from different tables or passages of the source.

Columns and labels:
IKKε = target: T1, IKKε (Homo sapiens, UniProt Q14164); experiment: In-vitro IKKε kinase assay ([γ33]ATP filter-plate); format: biochemical
T1 construct: His-tag; made in house; host or cells: Sf9 insect cells
T1 sequence (Q14164 1-716): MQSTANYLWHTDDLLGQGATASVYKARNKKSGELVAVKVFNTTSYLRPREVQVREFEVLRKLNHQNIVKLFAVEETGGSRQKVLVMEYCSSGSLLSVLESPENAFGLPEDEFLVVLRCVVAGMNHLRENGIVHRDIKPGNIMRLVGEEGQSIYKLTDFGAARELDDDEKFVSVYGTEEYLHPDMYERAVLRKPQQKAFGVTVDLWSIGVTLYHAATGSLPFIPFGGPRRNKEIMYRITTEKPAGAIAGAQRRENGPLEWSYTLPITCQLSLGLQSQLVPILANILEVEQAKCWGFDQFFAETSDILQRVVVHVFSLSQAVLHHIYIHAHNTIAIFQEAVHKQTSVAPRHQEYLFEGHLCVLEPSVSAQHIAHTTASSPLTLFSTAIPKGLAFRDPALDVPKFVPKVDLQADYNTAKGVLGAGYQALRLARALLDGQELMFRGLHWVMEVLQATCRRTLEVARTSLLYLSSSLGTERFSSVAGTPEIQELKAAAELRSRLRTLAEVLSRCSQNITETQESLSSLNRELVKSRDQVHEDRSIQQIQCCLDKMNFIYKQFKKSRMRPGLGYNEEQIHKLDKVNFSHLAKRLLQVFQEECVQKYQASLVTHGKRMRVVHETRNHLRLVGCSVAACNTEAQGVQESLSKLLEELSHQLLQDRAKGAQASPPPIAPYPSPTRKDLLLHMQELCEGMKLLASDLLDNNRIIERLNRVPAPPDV
How it was run: (§1)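 His-tagged Sf9-expressed kinases at 0.1 or 0.02 μg/ml (TBK1) and 0.1 or 0.015 μg/ml (IKKε) for normal and sensitized formats, with myelin basic protein or casein substrate. ATP was at 2×Km (60 μM TBK1, 32 μM IKKε) plus 0.3 μCi [γ33]ATP. Reactions ran 30-45 min, were captured on P-81 filters, and counts were normalized to DMSO.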

[1] = tested on: IKKε-mediated phosphorylation of IRF3; experiment: In-situ phosphorylation of IRF3 (pIRF3 Ser396 ELISA) in HEK293T cells cotransfected with IRF3 and IKKε; format: cell-based; conditions: Homo sapiens, HEK-293T
How it was run: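 Cells for the IRF7 Western blots carried IRF7 and TBK1 plasmids, were seeded at 150,000/well, exposed to compound overnight and probed for pSer477/Ser479 IRF7. The ELISA readout used IRF3 + IKKε-cotransfected HEK293T at 20,000/well with 20 h treatment, quantifying pSer396 IRF3 relative to DMSO, plus a parallel CellTiter-Glo viability check.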

TBK1 = target: T2, TBK1 (Homo sapiens, UniProt Q9UHD2); experiment: In-vitro TBK1 kinase assay ([γ33]ATP filter-plate); format: biochemical
T2 construct: His-tag; made in house; host or cells: Sf9 insect cells
T2 sequence (Q9UHD2 1-729): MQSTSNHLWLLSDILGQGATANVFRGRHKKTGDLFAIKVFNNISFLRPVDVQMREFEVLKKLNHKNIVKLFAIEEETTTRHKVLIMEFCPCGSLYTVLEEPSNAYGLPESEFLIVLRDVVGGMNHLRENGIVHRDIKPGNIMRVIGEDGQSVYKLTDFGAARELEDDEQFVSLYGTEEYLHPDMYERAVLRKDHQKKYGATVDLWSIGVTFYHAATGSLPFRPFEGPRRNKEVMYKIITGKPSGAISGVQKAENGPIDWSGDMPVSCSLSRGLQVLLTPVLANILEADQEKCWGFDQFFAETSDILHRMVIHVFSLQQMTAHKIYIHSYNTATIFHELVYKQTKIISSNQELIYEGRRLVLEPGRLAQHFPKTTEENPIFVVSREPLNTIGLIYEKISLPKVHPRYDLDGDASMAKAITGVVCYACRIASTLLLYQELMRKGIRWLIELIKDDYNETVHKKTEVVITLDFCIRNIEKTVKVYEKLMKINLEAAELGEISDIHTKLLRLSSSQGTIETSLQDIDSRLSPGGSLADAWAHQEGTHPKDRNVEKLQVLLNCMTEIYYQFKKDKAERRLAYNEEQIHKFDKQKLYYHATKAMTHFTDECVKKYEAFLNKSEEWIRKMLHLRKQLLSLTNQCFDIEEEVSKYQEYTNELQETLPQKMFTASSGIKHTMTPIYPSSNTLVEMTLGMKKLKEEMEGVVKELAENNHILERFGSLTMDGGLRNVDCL
How it was run: as §1

[2] = text bins, read-out: IC50 for inhibition of the kinase activity of IKKε
[3] = HEK293T cells in culture, Table 3, read-out: pIRF3 ELISA IC50
[4] = HEK293T cells, 20 hours, text bins, read-out: IC50 for inhibition of the in-situ IKKε-mediated phosphorylation of IRF3
[5] = text bins, read-out: IC50 for inhibition of the kinase activity of TBK1

SMILES | IC50 (IKKε; Table 3, read-out: IKKε IC50) | IC50 (IKKε; [2]) | IC50 [1, 3] | IC50 [1, 4] | IC50 (TBK1; Table 3, read-out: TBK1 IC50) | IC50 (TBK1; [5])
COc1cc(Nc2nccc(-c3ccc(O[C@@H]4CCN(C(=O)CO)C4)c(C#N)c3)n2)ccc1N1CCOCC1 [compound 588, 2-{[(3R)-1-(hydroxyacetyl)pyrrolidin-3-yl]oxy}-5-(2-{[3-methoxy-4-(morpholin-4-yl)phenyl]amino}pyrimidin-4-yl)benzonitrile] | 0.0003 µM | < 0.005 µM | 0.031 µM | < 0.1 µM | 0.0003 µM | < 0.01 µM
COc1cc(Nc2nccc(-c3ccc(OC4CCOCC4)c(C#N)c3)n2)ccc1CN1CCN(C)CC1 [compound 479, 5-[2-({3-Methoxy-4-[(4-methylpiperazin-1-yl)methyl]phenyl}amino)pyrimidin-4-yl]-2-(tetrahydro-2H-pyran-4-yloxy)benzonitrile] | – | < 0.005 µM | – | < 0.1 µM | – | < 0.01 µM
COc1ccc(Nc2nccc(-c3ccc(OC4CCOCC4)c(C#N)c3)n2)cc1OCCCC1CCNCC1 [compound 522, 5-[2-({4-methoxy-3-[3-(piperidin-4-yl)propoxy]phenyl}amino)pyrimidin-4-yl]-2-(tetrahydro-2H-pyran-4-yloxy)benzonitrile] | – | < 0.005 µM | – | < 0.1 µM | – | < 0.01 µM
CC(C)N1CCN(C(=O)Cc2cccc(Nc3nccc(-c4ccc(OC5CCOCC5)c(C#N)c4)n3)c2)CC1 [compound 408, 5-{2-[(3-{2-Oxo-2-[4-(propan-2-yl)piperazin-1-yl]ethyl}phenyl)amino]pyrimidin-4-yl}-2-(tetrahydro-2H-pyran-4-yloxy)benzonitrile] | – | 0.005 to 0.05 µM | – | < 0.1 µM | – | < 0.01 µM
N#Cc1cc(-c2ccnc(Nc3ccc(N4CCOCC4)cc3)n2)ccc1NC1CCOCC1 [compound 468, 5-(2-{[4-(morpholin-4-yl)phenyl]amino}pyrimidin-4-yl)-2-(tetrahydro-2H-pyran-4-ylamino) benzonitrile] | – | 0.005 to 0.05 µM | – | < 0.1 µM | – | < 0.01 µM
CCN1CCN(CCCOc2cc(Nc3nccc(-c4ccc(OC5CCOCC5)c(C#N)c4)n3)ccc2OC)CC1 [compound 525, 5-[2-({3-[3-(4-ethylpiperazin-1-yl)propoxy]-4-methoxyphenyl}amino)pyrimidin-4-yl]-2-(tetrahydro-21H-pyran-4-yloxy)benzonitrile] | – | < 0.005 µM | – | < 0.1 µM | – | < 0.01 µM
COc1ccc(Nc2nccc(-c3ccc(OC4CCOCC4)c(C#N)c3)n2)cc1OCCCN1CCNCC1 [compound 526, 5-[2-({4-methoxy-3-[3-(piperazin-1-yl)propoxy]phenyl}amino)pyrimidin-4-yl]-2-(tetrahydro-2H-pyran-4-yloxy)benzonitrile] | – | < 0.005 µM | – | 0.1 to 0.25 µM | – | < 0.01 µM

Next, values leading:

IC50 (IKKε; Table 3, read-out: IKKε IC50) | IC50 (IKKε; [2]) | IC50 [1, 3] | IC50 [1, 4] | IC50 (TBK1; Table 3, read-out: TBK1 IC50) | IC50 (TBK1; [5]) | SMILES
0.0008 µM | < 0.005 µM | 0.0319 µM | < 0.1 µM | 0.0013 µM | < 0.01 µM | CN(C)C(=O)Nc1cccc(Nc2nccc(-c3ccc(OC4CCOCC4)c(C#N)c3)n2)c1 [compound 631, 3-[3-({4-[3-Cyano-4-(tetrahydro-2H-pyran-4-yloxy)phenyl]pyrimidin-2-yl}amino)phenyl]-1,1-dimethylurea]
– | < 0.005 µM | – | < 0.1 µM | – | < 0.01 µM | N#Cc1cc(-c2ccnc(Nc3cccc(CO)c3)n2)ccc1OC1CCOCC1 [compound 395, 5-(2-{[3-(hydroxymethyl)phenyl]amino}pyrimidin-4-yl)-2-(tetrahydro-2H-pyran-4-yloxy)benzonitrile]
– | < 0.005 µM | – | < 0.1 µM | – | < 0.01 µM | COc1cc(Nc2nccc(-c3ccc(OC4CCOCC4)c(C#N)c3)n2)ccc1N1CCOCC1 [Example 73, 5-(2-{[3-methoxy-4-(morpholin-4-yl)phenyl]amino}pyrimidin-4-yl)-2-(tetrahydro-2H-pyran-4-yloxy)benzonitrile]
– | < 0.005 µM | – | < 0.1 µM | – | < 0.01 µM | CS(=O)(=O)NCc1ccc(Nc2nccc(-c3ccc(OC4CCOCC4)c(C#N)c3)n2)cc1 [compound 493, N-[4-({4-[3-cyano-4-(tetrahydro-2H-pyran-4-yloxy)phenyl]pyrimidin-2-yl}amino)benzyl] methanesulfonamide]
